Source: patent US20180094248A1, “Necroptosis Signaling as a Therapeutic Target for Alzheimer's Disease” (Arizona Board of Regents on behalf of Arizona State …, priority 2016, published 2018)

Experiments:
Type in all cases: cell-based, mouse
[1] = test system: primary cortical neurons from APP/PS1 mice; assay: NeuN count of APP/PS1 primary cortical neurons treated with Nec-1S or vehicle
Procedure: (§1) To probe for a direct link between necroptosis and neuronal loss in AD, we plated primary cortical neurons from APP/PS1 and wild type littermate mice. After seven days in vitro (DIV), neurons were treated with 10 μM of the necroptosis inhibitor 7-Cl-O-necrostatin (Nec15) or vehicle. Treatment was repeated at DIV 11. We then fixed neurons at DIV 11 and 15, and stained them for NeuN to count total number of neurons. […] To determine changes in necroptosis, we isolated proteins from neurons of the same four groups and measured the levels of total and phosphorylated MLKL by western blot.
(§2) Primary neuronal cultures—For the GFP experiments: Primary neurons were isolated from APP/PS1 and NonTg Po pups. The tissue was then dissociated in Neurobasal media (Thermo Fisher Scientific) and spun down for 3 minutes at 5,000 g at 4° C. The supernatant was discarded and the pellet was re-suspended in 1 ml of Neurobasal media supplemented with B27 (Thermo Fisher Scientific). […] Neurons were treated for a total of 15 days and the GFP fluorescence was measured every 4 days. […] All fluorescent measurements (excitation 488 nm, emission 509 nm) were performed using the Synergy HT multi-mode microplate reader with the Gen5 software (BioTek, Winooski, Vt.). The reader was pre-heated to 37° C. to maintain optimal conditions for the neurons during the measurements. […]

[2] = test system: primary cortical neurons isolated from APP/PS1 and wild type mice; assay: GFP fluorescence in live AAV-GFP infected primary cortical neurons treated with Nec1S or vehicle; details: DIV 15; 10 μM at DIV 7 and 11; APP/PS1-veh vs the other three groups incl. APP/PS1-Nec1S
Procedure: At DIV 1, we infected primary cortical neurons isolated from APP/PS1 and wild type mice with an adeno-associated virus (AAV) expressing the green fluorescent protein (GFP) under the neuronal promotor CamKII. At DIV 7 and 11, neurons from the two genotypes were treated with 10 μM Nec1S or vehicle. We then measured GFP fluorescence in live cells as an indication of live neurons.
as §2, with “Scientific). An equal volume per each sample was seeded into a Poly-D-Lysine-coated (10 mg/mL, Sigma-Aldrich) black 96-well tissue culture plate.” for “Scientific).”

[3] = test system: phosphorylated MLKL; assay: Western blot of total and phosphorylated MLKL in primary neurons (NeuN experiment)
Procedure: as §1
Western blot and ELISA: The proteins were run using reducing conditions in precast gels (Thermo Fisher Scientific) and transferred to nitrocellulose membranes (iBlot, Thermo Fisher Scientific). […] The blots were then washed with TBS-T, and imaged/quantified using a LICOR Odyssey CLx (LI-COR Biosciences) attached to a Dell computer (OptiPlex 7010) running Windows 7 and Image Studio (version 1.0.11, LI-COR Biosciences). […]
Primary neuronal cultures—For the GFP experiments: Primary neurons were isolated from APP/PS1 and NonTg Po pups. […] Neurons were treated for a total of 15 days and the GFP fluorescence was measured every 4 days. […] All fluorescent measurements (excitation 488 nm, emission 509 nm) were performed using the Synergy HT multi-mode microplate reader with the Gen5 software (BioTek, Winooski, Vt.). […]

SMILES: CN1C(=O)NC(Cc2c[nH]c3c(Cl)cccc23)C1=O (centres unmarked) [Nec1S, 5-((7-chloro-1 H-indol-3-yl)methyl)-3-methylimidazolidine-2,4-dione]
- number of NeuN-positive neurons ([1]; DIV 15, 10 μM at DIV 7 and DIV 11, APP/PS1-Nec1S vs APP/PS1-veh and WT groups): more neurons than the APP/PS1-veh group, and as many neurons as both WT groups
- in vitro cell death of APP/PS1 primary cortical neurons ([1]; overall conclusion of the two independent experiments (NeuN and GFP), 10 μM): reduces the accelerated in vitro cell death of APP/PS1 primary cortical neurons
- GFP fluorescence in live cells (indication of live neurons) [2]: APP/PS1-veh group had lower GFP levels compared to the other three groups
- pMLKL level ([3]; DIV 11, all four groups, NeuN experiment): not detectable
- ratio pMLKL/MLKL ([3]; DIV 15, 10 μM, APP/PS1-veh group vs the other three groups incl. APP/PS1-Nec1S): statistically different compared to the other three groups
